Data from ChEMBL document CHEMBL1126229, “Enol lactone derivatives as inhibitors of human neutrophil elastase and trypsin-like proteases” (Bioorg Med Chem Lett, 1992).
One block for each compound: values may come before it.

Key:
Serine protease 1 [1] = molecular target: T1, Serine protease 1 (Homo sapiens, UniProt P07477); assay: Rate constant of deacylation for trypsin; Fast and could not be measured
[2] = molecular target: Chymotrypsinogen A (Bos taurus) (UniProt P00766)
[3] = molecular target: Chymotrypsinogen A (Bos taurus) (UniProt P00766); remark: listed apart in the source
[4] = molecular target: T2, Urokinase-type plasminogen activator (Homo sapiens, UniProt P00749)
Description: Specificity constant on Urokinase-type plasminogen activator was determined at 0 percent and at 86 minutes for maximum inhibition and no enzyme activity was recovered over the 2 h-time

Serine protease 1 [5] = molecular target: T1, Serine protease 1
Description: Specificity constant on trypsin was determined at 0 percent and at 95 minutes for maximum inhibition and no enzyme activity was recovered over the 2 h-time

[6] = molecular target: T2, Urokinase-type plasminogen activator; remark: listed apart in the source
Chymotrypsinogen A = Chymotrypsinogen A (Bos taurus, UniProt P00766); assay: Rate constant of deacylation for alpha-chymotrypsin; Fast and could not be measured
Serine protease 1 [7] = molecular target: T1, Serine protease 1; remark: listed apart in the source
Serine protease 1 [8] = molecular target: T1, Serine protease 1; remark: listed apart in the source
[9] = molecular target: Chymotrypsinogen A (Bos taurus) (UniProt P00766); remark: listed apart in the source
[10] = molecular target: T2, Urokinase-type plasminogen activator; remark: listed apart in the source
[11] = molecular target: T3, Chymotrypsin-like elastase family member 2A (Sus scrofa) (UniProt P08419); assay: Specificity constant on porcine pancreatic elastase was determined at 15 percent and at 35 minutes for maximum inhibition with 0 minutes persistence of inhibition
T3 sequence (whole entry): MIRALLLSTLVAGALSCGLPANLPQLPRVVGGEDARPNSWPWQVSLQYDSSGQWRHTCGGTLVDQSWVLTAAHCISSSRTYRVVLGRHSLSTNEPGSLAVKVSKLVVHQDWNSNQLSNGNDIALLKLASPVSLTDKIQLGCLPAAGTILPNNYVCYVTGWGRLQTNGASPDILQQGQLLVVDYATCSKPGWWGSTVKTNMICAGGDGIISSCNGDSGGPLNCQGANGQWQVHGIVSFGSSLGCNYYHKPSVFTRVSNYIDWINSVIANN

[12] = molecular target: T4, Neutrophil elastase (Homo sapiens) (UniProt P08246); assay: Rate constant of acylation on human neutrophil elastase was determined at 20 percent and at 95 minutes for maximum inhibition and no enzyme activity was recovered over the 2 h-time
T4 sequence (whole entry): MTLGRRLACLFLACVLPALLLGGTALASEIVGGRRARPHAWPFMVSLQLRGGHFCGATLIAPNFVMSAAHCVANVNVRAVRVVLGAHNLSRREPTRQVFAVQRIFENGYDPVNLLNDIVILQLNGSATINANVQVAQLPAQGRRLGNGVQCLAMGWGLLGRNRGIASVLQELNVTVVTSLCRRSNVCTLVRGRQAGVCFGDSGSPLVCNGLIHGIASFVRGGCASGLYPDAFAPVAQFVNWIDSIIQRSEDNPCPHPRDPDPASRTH

[13] = molecular target: T3, Chymotrypsin-like elastase family member 2A (Sus scrofa); assay: Binding constant on porcine pancreatic elastase was determined at 15 percent and at 35 minutes for maximum inhibition with 0 minutes persistence of inhibition
[14] = molecular target: T4, Neutrophil elastase (Homo sapiens); assay: Specificity constant on human neutrophil elastase was determined at 20 percent and at 95 minutes for maximum inhibition and no enzyme activity was recovered over the 2 h-time
[15] = molecular target: T4, Neutrophil elastase (Homo sapiens); assay: Binding constant on human neutrophil elastase was determined at 20 percent and at 95 minutes for maximum inhibition and no enzyme activity was recovered over the 2 h-time
[16] = molecular target: T3, Chymotrypsin-like elastase family member 2A (Sus scrofa); assay: Rate constant of acylation on porcine pancreatic elastase was determined at 15 percent and at 35 minutes for maximum inhibition with 0 minutes persistence of inhibition
[17] = molecular target: Chymotrypsinogen A (Bos taurus) (UniProt P00766); assay: Rate constant of acylation on alpha-chymotrypsin was determined at 10 percent and at 98 minutes for maximum inhibition and no enzyme activity was recovered over the 2 h-time
[18] = molecular target: T3, Chymotrypsin-like elastase family member 2A (Sus scrofa); assay: Specificity constant on porcine pancreatic elastase was determined at 30 percent and at 99 minutes for maximum inhibition and no enzyme activity was recovered over the 2 h-time
Serine protease 1 [19] = molecular target: T1, Serine protease 1; assay: Binding constant on trypsin was determined at 10 percent and at 83 minutes for maximum inhibition and no enzyme activity was recovered over the 2 h-time
[20] = molecular target: T4, Neutrophil elastase (Homo sapiens); assay: Binding constant on human neutrophil elastase was determined at 30 percent and at 80 minutes for maximum inhibition and no enzyme activity was recovered over the 2 h-time
[21] = molecular target: Chymotrypsinogen A (Bos taurus) (UniProt P00766); assay: Binding constant on alpha-chymotrypsin was determined at 10 percent and at 98 minutes for maximum inhibition and no enzyme activity was recovered over the 2 h-time
[22] = molecular target: Chymotrypsinogen A (Bos taurus) (UniProt P00766); assay: Specificity constant on alpha-chymotrypsin was determined at 10 percent and at 98 minutes for maximum inhibition and no enzyme activity was recovered over the 2 h-time
Serine protease 1 [23] = molecular target: T1, Serine protease 1; assay: Rate constant of acylation on trypsin was determined at 10 percent and at 83 minutes for maximum inhibition and no enzyme activity was recovered over the 2 h-time
Serine protease 1 [24] = molecular target: T1, Serine protease 1; assay: Specificity constant on trypsin was determined at 10 percent and at 83 minutes for maximum inhibition and no enzyme activity was recovered over the 2 h-time
[25] = molecular target: T4, Neutrophil elastase (Homo sapiens); assay: Specificity constant on human neutrophil elastase was determined at 30 percent and at 80 minutes for maximum inhibition and no enzyme activity was recovered over the 2 h-time
[26] = molecular target: T3, Chymotrypsin-like elastase family member 2A (Sus scrofa); assay: Binding constant on porcine pancreatic elastase was determined at 30 percent and at 99 minutes for maximum inhibition and no enzyme activity was recovered over the 2 h-time
[27] = molecular target: T4, Neutrophil elastase (Homo sapiens); assay: Rate constant of acylation on human neutrophil elastase was determined at 30 percent and at 80 minutes for maximum inhibition and no enzyme activity was recovered over the 2 h-time
[28] = molecular target: T3, Chymotrypsin-like elastase family member 2A (Sus scrofa); assay: Rate constant of acylation on porcine pancreatic elastase was determined at 30 percent and at 99 minutes for maximum inhibition and no enzyme activity was recovered over the 2 h-time
Serine protease 1 [29] = molecular target: T1, Serine protease 1; assay: Rate constant of acylation on trypsin was determined at 0 percent and at 97 minutes for maximum inhibition with 45 minutes persistence of inhibition
[30] = molecular target: T2, Urokinase-type plasminogen activator; assay: Binding constant on Urokinase-type plasminogen activator was determined at 0 percent and at 97 minutes for maximum inhibition and no enzyme activity was recovered over the 2 h-time
Serine protease 1 [31] = molecular target: T1, Serine protease 1; assay: Binding constant on trypsin was determined at 0 percent and at 97 minutes for maximum inhibition with 45 minutes persistence of inhibition
[32] = molecular target: T2, Urokinase-type plasminogen activator; assay: Rate constant of deacylation for Urokinase-type plasminogen activator; NM - Fast and could not be measured
[33] = molecular target: T2, Urokinase-type plasminogen activator; assay: Specificity constant on Urokinase-type plasminogen activator was determined at 0 percent and at 97 minutes for maximum inhibition and no enzyme activity was recovered over the 2 h-time
Serine protease 1 [34] = molecular target: T1, Serine protease 1; assay: Specificity constant on trypsin was determined at 0 percent and at 97 minutes for maximum inhibition with 45 minutes persistence of inhibition
[35] = molecular target: T2, Urokinase-type plasminogen activator; assay: Rate constant of acylation on Urokinase-type plasminogen activator […] was determined at 0 percent and at 97 minutes for maximum inhibition and no enzyme activity was recovered over the 2 h-time
Serine protease 1 [36] = molecular target: T1, Serine protease 1; assay: Rate constant of deacylation for trypsin
[37] = molecular target: Chymotrypsinogen A (Bos taurus) (UniProt P00766); assay: Binding constant on alpha-chymotrypsin was determined at 45 percent and at 96 minutes for maximum inhibition and no enzyme activity was recovered over the 2 h-time
[38] = molecular target: T2, Urokinase-type plasminogen activator; assay: Rate constant of deacylation for Urokinase-type plasminogen activator

T1 sequence (P07477 whole entry): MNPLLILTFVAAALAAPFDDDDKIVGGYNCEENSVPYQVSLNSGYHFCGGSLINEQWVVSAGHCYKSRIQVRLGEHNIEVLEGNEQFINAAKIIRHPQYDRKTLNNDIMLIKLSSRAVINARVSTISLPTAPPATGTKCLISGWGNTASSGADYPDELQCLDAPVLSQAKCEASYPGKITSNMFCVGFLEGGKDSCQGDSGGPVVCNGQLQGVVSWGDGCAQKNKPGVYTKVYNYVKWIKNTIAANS

SMILES: C=C1C[C@H](c2ccc(NC(=N)N)cc2)[C@@H](NC(=O)c2ccccc2)C(=C)O1
Kd (Serine protease 1 [1]): 2.5e-05 s⁻¹
Ks/i [2]: 0.46 µM
ka [3]: 9.51 min⁻¹
ka/Ki [4]: 13300 M⁻¹ s⁻¹
ka/Ki (Serine protease 1 [5]): 17000 M⁻¹ s⁻¹
ka [6]: 4.83 min⁻¹
Kd (Chymotrypsinogen A): Not measurable
Ks/i (Serine protease 1 [7]): 10 µM
ka (Serine protease 1 [8]): 10.2 min⁻¹
ka/Ki [9]: 350000 M⁻¹ s⁻¹
Ks/i [10]: 6 µM

SMILES: N=C(N)Nc1ccc([C@H]2C/C(=C\I)OC(=O)[C@@H]2NC(=O)c2ccccc2)cc1
Kd (Serine protease 1 [36]): 8.3e-05 s⁻¹
Ks/i [37]: 0.17 µM
Kd [38]: 1.3e-05 s⁻¹

Results, then the compound that gave them:

ka/Ki [11]: 333 M⁻¹ s⁻¹
ka [12]: 0.81 min⁻¹
Ks/i [13]: 48.7 µM
ka/Ki [14]: 4500 M⁻¹ s⁻¹
Ks/i [15]: 3 µM
ka [16]: 1.12 min⁻¹
SMILES: C/C(Br)=C1/CCC(C(C)C)C(=O)O1 (stereo not given)

ka [17]: 3.2 min⁻¹
ka/Ki [18]: 83.3 M⁻¹ s⁻¹
Ks/i (Serine protease 1 [19]): 24 µM
Ks/i [20]: 6.25 µM
Ks/i [21]: 89 µM
ka/Ki [22]: 667 M⁻¹ s⁻¹
ka (Serine protease 1 [23]): 0.45 min⁻¹
ka/Ki (Serine protease 1 [24]): 333 M⁻¹ s⁻¹
ka/Ki [25]: 34700 M⁻¹ s⁻¹
Ks/i [26]: 88 µM
ka [27]: 13 min⁻¹
ka [28]: 0.42 min⁻¹
SMILES: C=C1CCC(C(C)C)C(=O)O1 (stereo not given)

ka (Serine protease 1 [29]): 14.3 min⁻¹
Kd (Serine protease 1 [1]): Not measurable
Ks/i [30]: 0.33 µM
Ks/i (Serine protease 1 [31]): 0.23 µM
Kd [32]: Not measurable
ka/Ki [33]: 1.98e+07 M⁻¹ s⁻¹
ka/Ki (Serine protease 1 [34]): 1.03e+06 M⁻¹ s⁻¹
ka [35]: 391 min⁻¹
SMILES: C=C1CCC(c2ccc(NC(=N)N)cc2)C(=O)O1 (stereo not given)
